# From patent publication US20080207650A1, “Chemical Compounds 636” (priority 2007, published 2008)
# Target: recombinant Human Phosphodiesterase B2 (PDE4B2) (Homo sapiens, UniProt Q07343)
# Experiment: Human Phosphodiesterase B2 Radiometric Assay
# Type: biochemical
# Settings: SPA assay, 0.1 μg/mL recombinant PDE4B2, 8 nM [3H]cyclic AMP, preincubated 30 min at 30 C, reaction 20 minutes; read-out: PDE4B2 pIC50 (converted)
# Experimental: Human Phosphodiesterase B2 Radiometric Assay
# The assay uses recombinant Human Phosphodiesterase B2 (PDE4B2) produced in house (PrAZL0163), stored at −20° C. This assay is based on the observation that 5′AMP, the product of the reaction catalysed by PDE4, binds preferentially to yttrium silicate SPA beads (Amersham Biosciences, UK) compared to the substrate, cAMP. Compounds at the appropriate concentration were preincubated at 30 C for 30 min with an assay buffer containing 50 mM HEPES (pH 7.5), 8.3 mM MgCl2, 1.7 mM EGTA, 0.01% (w/v) Brij® 35 and 0.1 μg/mL recombinant PDE4B2. The reaction was started by the addition of [3H]cyclic AMP to give a final concentration of 8 nM, and was stopped 20 minutes after the addition of the substrate by the addition of yttrium silicate SPA beads containing 18 mM Zn SO4. Bound [3H]cyclic AMP was measured using a Topcount NXT (Packard Bioscience, UK). IC50 values (presented in Table I) were determined using Xlfit3 curve fitting, using model 205.
# recombinant Human Phosphodiesterase B2 (PDE4B2), sequence (Q07343 1-564 isoform Q07343-2): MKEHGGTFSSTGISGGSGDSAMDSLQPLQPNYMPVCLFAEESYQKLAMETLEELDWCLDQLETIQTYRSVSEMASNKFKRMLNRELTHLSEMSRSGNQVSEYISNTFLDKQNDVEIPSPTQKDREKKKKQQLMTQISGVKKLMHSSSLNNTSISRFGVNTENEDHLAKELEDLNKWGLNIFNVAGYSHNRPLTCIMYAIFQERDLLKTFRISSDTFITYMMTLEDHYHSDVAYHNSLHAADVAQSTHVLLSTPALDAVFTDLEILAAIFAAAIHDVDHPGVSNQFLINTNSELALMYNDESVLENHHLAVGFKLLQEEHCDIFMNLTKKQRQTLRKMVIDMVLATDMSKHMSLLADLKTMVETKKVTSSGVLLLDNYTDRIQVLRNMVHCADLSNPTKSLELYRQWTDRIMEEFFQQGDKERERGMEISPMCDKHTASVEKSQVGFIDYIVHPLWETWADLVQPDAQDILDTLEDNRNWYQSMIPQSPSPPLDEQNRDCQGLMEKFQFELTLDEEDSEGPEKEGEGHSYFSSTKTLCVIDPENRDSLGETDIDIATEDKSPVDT
row,IC50 [nM],Compound
1,6.31,"NCC1CCc2nc(C(=O)N[C@H]3CC[C@@H](n4c(=O)c5cc(F)cnc5n(C5CCSCC5)c4=O)CC3)cn2C1 (stereo partly drawn) [Example 3, 6-(aminomethyl)-N-{cis-4-[6-fluoro-2,4-dioxo-1-(tetrahydro-2H-thiopyran-4-yl)-1,4-dihydropyrido[2,3-d]pyrimidin-3(2H)-yl]cyclohexyl}-5,6,7,8-tetrahydroimidazo[1,2-a]pyridine-2-carboxamide]"
2,3.16,"CN1CCN(Cc2ccc(C(=O)NC3CCC(n4c(=O)c5cc(F)cnc5n(C5CCSCC5)c4=O)CC3)cc2)CC1 (stereo not shown) [Example 6, N-[4-(9-fluoro-2,4-dioxo-5-tetrahydrothiopyran-4-yl-3,5,7-triazabicyclo[4.4.0]deca-6,8,10-trien-3-yl)cyclohexyl]-4-[(4-methylpiperazin-1-yl)methyl]benzamide]"
3,2,"O=C(CN1CCN(C(=O)Cc2ccccc2)CC1)NC1CCC(n2c(=O)c3cc(F)cnc3n(C3CCSCC3)c2=O)CC1 (stereo not shown) [Example 24, N-[4-(9-fluoro-2,4-dioxo-5-tetrahydrothiopyran-4-yl-3,5,7-triazabicyclo[4.4.0]deca-6,8,10-trien-3-yl)cyclohexyl]-2-[4-(2-phenylacetyl)piperazin-1-yl]acetamide]"
4,0.0794,"O=C(CN1CCN(Cc2ccccc2)CC1)NC1CCC(n2c(=O)c3cc(F)cnc3n(C3CCSCC3)c2=O)CC1 (stereo not shown) [Example 10, 2-(4-benzylpiperazin-1-yl)-N-[4-(9-fluoro-2,4-dioxo-5-tetrahydrothiopyran-4-yl-3,5,7-triazabicyclo[4.4.0]deca-6,8,10-trien-3-yl)cyclohexyl]acetamide]"
